Reference: EP4707280A1, “1,4-CINEOLE DERIVATIVE AND INTERMEDIATE THEREOF, HERBICIDE CONTAINING SAID DERIVATIVE AS ACTIVE INGREDIENT, METHOD FOR USING HERBICIDE, AND METHOD FOR PREPARING AGROCHEMICAL COMPOSITION” (HOKKO CHEMICAL INDUSTRY CO., LTD., priority 2023, dated 2024)

Key:
Assay type in all cases: in vivo
Echinochloa crus-galli [1] = assay: Test Example 4: herbicidal effect test by stem and leaf treatment in upland field; settings: Echinochloa crus-galli; 120 g per 10 ares; sprayed seven days after sowing, upland soil; 14 days after application; read-out: weed inhibition rate
[2] = tested on: Echinochloa crus-galli var. formosensis; assay: Test Example 5: herbicidal effect test by soil application in paddy rice (low dose); settings: Echinochloa crus-galli, soil, 336 h; 7.5 g per 10 ares; applied immediately after sowing, flooded pots; 14 days after application; read-out: weed inhibition rate
Outline: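 Paddy soil in Wagner pots was fertilized (N:P:K 16:16:16), puddled, sown with 30 seeds per weed species at 0–1 cm, then flooded to ~3 cm in a glass greenhouse. Emulsifiable concentrate diluted in water was dropper-applied into floodwater immediately, at 7.5 g active ingredient per 10 ares; duplicates, scored at 14 days.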

Digitaria ciliaris [3] = assay: Test Example 8: herbicidal effect test by stem and leaf treatment in upland field (low dose); settings: Digitaria ciliaris; 7.5 g per 10 ares; sprayed seven days after sowing, upland soil; 14 days after application; read-out: weed inhibition rate
Echinochloa crus-galli [4] = assay: as above; settings: Echinochloa crus-galli; 7.5 g per 10 ares; sprayed seven days after sowing, upland soil; 14 days after application; read-out: weed inhibition rate
[5] = tested on: Echinochloa crus-galli var. formosensis; assay: Test Example 6: herbicidal effect test by application during growth period of paddy rice (low dose); settings: Echinochloa crus-galli; 7.5 g per 10 ares; applied seven days after sowing, flooded pots; 14 days after application; read-out: weed inhibition rate
Outline: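 Formulated compound, diluted in water, was dropped onto flooded pots seven days post-sowing at 7.5 g a.i. per 10 ares. Seeds had been sown 0-1 cm deep in puddled paddy soil under ~3 cm water in a glass greenhouse. Inhibition (%) assessed at 14 days; duplicate pots.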

Digitaria ciliaris [6] = assay: Test Example 4: herbicidal effect test by stem and leaf treatment in upland field; settings: Digitaria ciliaris; 120 g per 10 ares; sprayed seven days after sowing, upland soil; 14 days after application; read-out: weed inhibition rate
Digitaria ciliaris [7] = assay: Test Example 7: herbicidal effect test by soil application in upland field (low dose); settings: Digitaria ciliaris, 7.5 g per 10 ares, sprayed one day after sowing, 14 days after application, read-out: weed inhibition rate
Outline: (§1)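 Pre-emergence soil application: upland alluvial loam pots sown with weed seeds mixed into the top 1 cm; one day after sowing, a water-diluted emulsifiable concentrate was sprayed on the soil at 100 L per 10 a, delivering 7.5 g active ingredient per 10 a. Weed inhibition rate (%) scored 14 days after application, duplicate pots.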

Echinochloa crus-galli [8] = assay: as above; settings: Echinochloa crus-galli, 7.5 g per 10 ares, sprayed one day after sowing, 14 days after application, read-out: weed inhibition rate
Outline: as §1

[9] = tested on: Echinochloa crus-galli var. formosensis; assay: Test Example 1: herbicidal effect test by soil application in paddy rice; settings: Echinochloa crus-galli, soil, 336 h; 120 g active ingredient per 10 ares; applied immediately after sowing, flooded pots; 14 days after application; read-out: weed inhibition rate
Outline: (§2)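 Pre-emergence paddy soil application, 120 g a.i./10 a, emulsifiable concentrate diluted in water, applied by dropper right after sowing. Seeds (30/species) sown 0–1 cm in puddled, fertilized soil; flooded ~3 cm; glass greenhouse.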

Scirpus juncoides [10] = assay: as above; settings: Schoenoplectiella juncoides, soil, 336 h; 120 g active ingredient per 10 ares; applied immediately after sowing, flooded pots; 14 days after application; read-out: weed inhibition rate
Outline: as §2

Digitaria ciliaris [11] = assay: Test Example 3: herbicidal effect test by soil application in upland field; settings: Digitaria ciliaris, 120 g per 10 ares, sprayed one day after sowing, 14 days after application, read-out: weed inhibition rate
Outline: (§3)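 Weed inhibition (%) was assessed 14 days after treatment, in duplicate per concentration group. Seeds had been mixed into the upper 1 cm of upland alluvial loam, and the soil surface was sprayed one day later with the diluted emulsifiable concentrate at 120 g active ingredient per 10 ares.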

Echinochloa crus-galli [12] = assay: as above; settings: Echinochloa crus-galli, 120 g per 10 ares, sprayed one day after sowing, 14 days after application, read-out: weed inhibition rate
Outline: as §3

[13] = tested on: Echinochloa crus-galli var. formosensis; assay: Test Example 2: herbicidal effect test by application during growth period of paddy rice; settings: Echinochloa crus-galli; 120 g per 10 ares; applied seven days after sowing, flooded pots; 14 days after application; read-out: weed inhibition rate
Outline: (§4)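 Paddy soil in Wagner pots was puddled with N:P:K 16:16:16 fertilizer, sown with 30 weed seeds per species at 0–1 cm and flooded to about 3 cm. Seven days after sowing, a water-diluted emulsifiable concentrate was dropped onto the water at 120 g active ingredient per 10 ares. Weed inhibition (%) was scored at 14 days, in duplicate.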

Scirpus juncoides [14] = assay: as above; settings: Schoenoplectiella juncoides; 120 g per 10 ares; applied seven days after sowing, flooded pots; 14 days after application; read-out: weed inhibition rate
Outline: as §4

CC(C)=CCOC1CC2(C(C)C)OC1(C)CC2I (stereo not shown) [1-1400, 5-iodo-1-methyl-2-(3-methylbut-2-enoxy)-4-isopropyl-7-oxabicyclo[2.2.1]heptane]
≥ 80%: inhibition at 1200 g/ha (Echinochloa crus-galli [1]) | inhibition at 75 g/ha [2] | inhibition at 75 g/ha (Digitaria ciliaris [3]) | inhibition at 75 g/ha (Echinochloa crus-galli [4]) | inhibition at 75 g/ha [5] | inhibition at 1200 g/ha (Digitaria ciliaris [6]) | inhibition at 75 g/ha (Digitaria ciliaris [7]) | inhibition at 75 g/ha (Echinochloa crus-galli [8]) | pest or weed control at 1200 g/ha [9] | pest or weed control at 1200 g/ha (Scirpus juncoides [10]) | inhibition at 1200 g/ha (Digitaria ciliaris [11]) | inhibition at 1200 g/ha (Echinochloa crus-galli [12]) | inhibition at 1200 g/ha [13] | inhibition at 1200 g/ha (Scirpus juncoides [14])

CC(C)C12CC(OCc3ccccc3Br)C(C)(CC1Cl)O2 (stereo not shown) [1-1295, 2-[(2-bromophenyl)methoxy]-5-chloro-1-methyl-4-isopropyl-7-oxabicyclo[2.2.1]heptane]
≥ 80%: inhibition at 1200 g/ha (Echinochloa crus-galli [1]) | inhibition at 75 g/ha [2] | inhibition at 75 g/ha (Digitaria ciliaris [3]) | inhibition at 75 g/ha (Echinochloa crus-galli [4]) | inhibition at 75 g/ha [5] | inhibition at 1200 g/ha (Digitaria ciliaris [6]) | inhibition at 75 g/ha (Digitaria ciliaris [7]) | inhibition at 75 g/ha (Echinochloa crus-galli [8]) | pest or weed control at 1200 g/ha [9] | pest or weed control at 1200 g/ha (Scirpus juncoides [10]) | inhibition at 1200 g/ha (Digitaria ciliaris [11]) | inhibition at 1200 g/ha (Echinochloa crus-galli [12]) | inhibition at 1200 g/ha [13] | inhibition at 1200 g/ha (Scirpus juncoides [14])

CC(C)[C@]12C[C@@H](OCc3ccsc3)[C@](C)(C[C@@H]1I)O2 [1-789, (1R,2S,4S,5R)-2-iodo-1-isopropyl-4-methyl-5-(3-thienylmethoxy)-7-oxabicyclo[2.2.1]heptane]
≥ 80%: inhibition at 1200 g/ha (Echinochloa crus-galli [1]) | inhibition at 75 g/ha [2] | inhibition at 75 g/ha (Digitaria ciliaris [3]) | inhibition at 75 g/ha (Echinochloa crus-galli [4]) | inhibition at 75 g/ha [5] | inhibition at 1200 g/ha (Digitaria ciliaris [6]) | inhibition at 75 g/ha (Digitaria ciliaris [7]) | inhibition at 75 g/ha (Echinochloa crus-galli [8]) | pest or weed control at 1200 g/ha [9] | pest or weed control at 1200 g/ha (Scirpus juncoides [10]) | inhibition at 1200 g/ha (Digitaria ciliaris [11]) | inhibition at 1200 g/ha (Echinochloa crus-galli [12]) | inhibition at 1200 g/ha [13] | inhibition at 1200 g/ha (Scirpus juncoides [14])

CC(C)=CCO[C@@H]1C[C@]2(C(C)C)O[C@@]1(C)C[C@@H]2Cl [1-612, (1R,2S,4S,5R)-2-chloro-1-isopropyl-4-methyl-5-(3-methylbut-2-enoxy)-7-oxabicyclo[2.2.1]heptane]
≥ 80%: inhibition at 1200 g/ha (Echinochloa crus-galli [1]) | inhibition at 75 g/ha [2] | inhibition at 75 g/ha (Digitaria ciliaris [3]) | inhibition at 75 g/ha (Echinochloa crus-galli [4]) | inhibition at 75 g/ha [5] | inhibition at 1200 g/ha (Digitaria ciliaris [6]) | inhibition at 75 g/ha (Digitaria ciliaris [7]) | inhibition at 75 g/ha (Echinochloa crus-galli [8]) | pest or weed control at 1200 g/ha [9] | pest or weed control at 1200 g/ha (Scirpus juncoides [10]) | inhibition at 1200 g/ha (Digitaria ciliaris [11]) | inhibition at 1200 g/ha (Echinochloa crus-galli [12]) | inhibition at 1200 g/ha [13] | inhibition at 1200 g/ha (Scirpus juncoides [14])

CC(C)C12C=CC(C)(O1)C(OCc1ccccc1F)C2 (stereo not shown) [3-754, 5-[(2-fluorophenyl)methoxy]-4-methyl-1-isopropyl-7-oxabicyclo[2.2.1]hept-2-ene]
≥ 80%: inhibition at 1200 g/ha (Echinochloa crus-galli [1]) | inhibition at 75 g/ha [2] | inhibition at 75 g/ha (Digitaria ciliaris [3]) | inhibition at 75 g/ha (Echinochloa crus-galli [4]) | inhibition at 75 g/ha [5] | inhibition at 1200 g/ha (Digitaria ciliaris [6]) | inhibition at 75 g/ha (Digitaria ciliaris [7]) | inhibition at 75 g/ha (Echinochloa crus-galli [8]) | pest or weed control at 1200 g/ha [9] | pest or weed control at 1200 g/ha (Scirpus juncoides [10]) | inhibition at 1200 g/ha (Digitaria ciliaris [11]) | inhibition at 1200 g/ha (Echinochloa crus-galli [12]) | inhibition at 1200 g/ha [13] | inhibition at 1200 g/ha (Scirpus juncoides [14])
